Patent publication US20110008465A1, “SESQUITERPENE FORMULATIONS, KITS AND METHODS OF USE THEREOF” (priority 2007, published 2011)
Where a name gives a salt, the structure may show the parent alone.

Legend:
A-549 (lung cancer) = assay: Chou and Talalay combination assay with beta-caryophyllene; assay type: cell-based, human; details: anticancer drug in combination with beta-caryophyllene; Chou and Talalay CI; 48 h
Description: (§1) Each solution was prepared fresh and use within 1 hour after preparation.
(§2) Cells were then harvested using trypsine-EDTA. Cells were counted using a hemocytometer and resuspended in DMEM+10% FBS medium.
(§3) Proliferation assay: Increasing concentrations of the anticancer agents and/or beta-caryophyllene were added to 96-well plate (100 μL per well). The final concentration of solvent in the culture medium was maintained below 0.5% (volume/volume) to avoid solvent toxicity.
(§4) The cells were incubated for 48 h at 37° C. and 5% CO2. Cytotoxicity was assessed using the resazurin reduction test (O'Brien et al., 2000). Fluorescence was measured on an automated 96-well Fluoroskan Ascent FI™ plate reader (Labsystems) using excitation and emission wavelengths of 530 nm and 590 nm, respectively. Resazurin was then removed.
(§5) Microplates were frozen at −20° C. overnight. Plates were thawed, a volume of 100 μl of 0.01% SDS in water was added to the wells, the plates were shaken at room temperature for 3 hours and then frozen once more at −20° C. overnight. […] Plates were shaken in the dark (at room temperature) for at least 2 hours, and fluorescence was measured on an automated 96-well Fluoroskan Ascent FI™ plate reader (Labsystems) using excitation and emission wavelengths of 360 nm and 460 nm, respectively.
(§6) Results were analyzed using the Chou and Talalay method (9) and may be interpreted as follow: Cl>1 represents an antagonist effect of beta-caryophyllene with the corresponding anticancer agent; Cl=1 represents an additive effect of beta-caryophyllene with the corresponding anticancer agent; Cl<1 represents a potentiating effect of beta-caryophyllene with the corresponding anticancer agent.

DLD-1 (colon cancer) = assay: as above; assay type: cell-based, human; details: anticancer drug in combination with beta-caryophyllene; Chou and Talalay CI; 48 h
Description: as §1, §2, §3, §4, §5, §6

MCF-7 (breast cancer) = assay: as above; assay type: cell-based, human; details: anticancer drug in combination with beta-caryophyllene; Chou and Talalay CI; 48 h
Description: as §1, §2, §3, §4, §5, §6

[1] = tested on: MDA-MB-231 (breast cancer); assay: as above; assay type: cell-based, human; details: anticancer drug in combination with beta-caryophyllene; Chou and Talalay CI; 48 h
Description: as §1, §2, §3, §4, §5, §6

PA-1 (ovary cancer) = assay: as above; assay type: cell-based, human; details: anticancer drug in combination with beta-caryophyllene; Chou and Talalay CI; 48 h
Description: as §1, §2, §3, §4, §5, §6

PC-3 (prostate cancer) = assay: as above; assay type: cell-based, human; details: anticancer drug in combination with beta-caryophyllene; Chou and Talalay CI; 48 h
Description: as §1, §2, §3, §4, §5

B16 (murine melanoma) = assay: as above; assay type: cell-based; details: anticancer drug in combination with beta-caryophyllene; Chou and Talalay CI; 48 h
Description: as §1, §2, §3, §4, §5, §6

[2] = tested on: GL-261 (murine glioblastoma); assay: as above; assay type: cell-based; details: anticancer drug in combination with beta-caryophyllene; Chou and Talalay CI; 48 h
Description: as §1, §2, §3, §4, §5, §6

MEL-2 (human melanoma) = assay: as above; assay type: cell-based; details: anticancer drug in combination with beta-caryophyllene; Chou and Talalay CI; 48 h
Description: as §1, §2, §3, §4, §5, §6

[3] = tested on: U-251 (human glioblastoma); assay: as above; assay type: cell-based; details: anticancer drug in combination with beta-caryophyllene; Chou and Talalay CI; 48 h
Description: as §1, §2, §3, §4, §5, §6

MCF-7 = assay: Cytotoxicity of alpha-humulene and isocaryophyllene alone or combined with beta-caryophyllene; assay type: cell-based, human
Description: Combinations of beta-caryophyllene and two other antitumor agents, isocaryophyllene and α-humulene, were also tested as described above with some adaptations. 5×10^3 cells per well were allowed to adhere for 16 hours before treatment. The final concentration of solvent in the culture medium was maintained at 0.5% (volume/volume) to avoid toxicity. These combinations were tested on MCF-7.

[4] = combined with 10 μg/ml of beta-caryophyllene

Row | Molecule | Potentiating activity A-549 (A-549 (lung cancer)) | Potentiating activity DLD-1 (DLD-1 (colon cancer)) | Potentiating activity MCF-7 (MCF-7 (breast cancer)) | Potentiating activity MDA [1] | Potentiating activity PA-1 (PA-1 (ovary cancer)) | Potentiating activity PC-3 (PC-3 (prostate cancer)) | Potentiating activity B16 (B16 (murine melanoma)) | Potentiating activity GL-261 [2] | Potentiating activity MEL-2 (MEL-2 (human melanoma)) | Potentiating activity U-251 [3] | IC50 (MCF-7; [4]) | IC50 (MCF-7; used alone)
1 | COc1cc([C@@H]2c3cc4c(cc3[C@@H](O[C@@H]3O[C@@H]5CO[C@@H](C)O[C@H]5[C@H](O)[C@H]3O)[C@H]3COC(=O)[C@H]23)OCO4)cc(OC)c1O [Etoposide, etoposide] | (4) (Weak: 0.8 < CI < 1 at IC50) | (3) (Moderate: 0.5 < CI < 0.8 at IC50) | (1) (Very High: CI equal or below 1 at IC20 and Cl below 0.6 to IC50) | (1) (Very High: CI equal or below 1 at IC20 and Cl below 0.6 to IC50) | (1) (Very High: potentiating or additive activity to IC20 and CI < 0.6 to IC50) | (6) (Antagonist effect: CI > 1) | (3) (Moderate: 0.5 < CI < 0.8 to IC50) | (2) (High: CI < 0.5 to IC50) | (3) (Moderate: 0.5 < CI < 0.8 to IC50) | (3) (Moderate: 0.5 < CI < 0.8 to IC50) |  | 
2 | CN(Cc1cnc2nc(N)nc(N)c2n1)c1ccc(C(=O)N[C@@H](CCC(=O)O)C(=O)O)cc1 [Methotrexate] | (4) (Weak: 0.8 < CI < 1 at IC50) | (4) (Weak: 0.8 < CI < 1 at IC50) | (2) (High: CI below 0.5 at IC50) | (6) (Antagonist effect: CI > 1) | (1) (Very High: potentiating or additive activity to IC20 and CI < 0.6 to IC50) | (6) (Antagonist effect: CI > 1) | (6) (Antagonist effect: CI > 1) | (6) (Antagonist effect: CI > 1) | (1) (Very High: potentiating or additive activity to IC20 and CI < 0.6 to IC50) | (2) (High: CI < 0.5 to IC50) |  | 
3 | O=C1c2c(O)ccc(O)c2C(=O)c2c(NCCNCCO)ccc(NCCNCCO)c21 [Mitoxantrone] | (5) (Additive effect: CI = 1) | (5) (Additive effect: CI = 1) | (1) (Very High: CI equal or below 1 at IC20 and Cl below 0.6 to IC50) | (3) (Moderate: 0.5 < CI < 0.8 at IC50) | (2) (High: CI < 0.5 to IC50) | (5) (Additive effect: CI = 1) | (3) (Moderate: 0.5 < CI < 0.8 to IC50) | (1) (Very High: potentiating or additive activity to IC20 and CI < 0.6 to IC50) | (3) (Moderate: 0.5 < CI < 0.8 to IC50) | (4) (Weak: 0.8 < CI < 1 to IC50) |  | 
4 | CC/C(=C(\c1ccccc1)c1ccc(OCCN(C)C)cc1)c1ccccc1 [Tamoxifen, tamoxifen citrate] | (3) (Moderate: 0.5 < CI < 0.8 at IC50) | (2) (High: CI below 0.5 at IC50) | (6) (Antagonist effect: CI > 1) | (5) (Additive effect: CI = 1) | (2) (High: CI < 0.5 to IC50) | (2) (High: CI < 0.5 to IC50) | (3) (Moderate: 0.5 < CI < 0.8 to IC50) | (2) (High: CI < 0.5 to IC50) | (1) (Very High: potentiating or additive activity to IC20 and CI < 0.6 to IC50) | (1) (Very High: potentiating or additive activity to IC20 and CI < 0.6 to IC50) |  | 
5 | COc1cc2ncnc(Nc3cccc(Cl)c3)c2cc1OC [Tyrphostin, Tyrphostin AG 1478] | (3) (Moderate: 0.5 < CI < 0.8 at IC50) | (1) (Very High: CI equal or below 1 at IC20 and Cl below 0.6 to IC50) | (1) (Very High: CI equal or below 1 at IC20 and Cl below 0.6 to IC50) | (4) (Weak: 0.8 < CI < 1 at IC50) | (2) (High: CI < 0.5 to IC50) | (2) (High: CI < 0.5 to IC50) | (1) (Very High: potentiating or additive activity to IC20 and CI < 0.6 to IC50) | (3) (Moderate: 0.5 < CI < 0.8 to IC50) | (1) (Very High: potentiating or additive activity to IC20 and CI < 0.6 to IC50) | (1) (Very High: potentiating or additive activity to IC20 and CI < 0.6 to IC50) |  | 
6 | C=C1CC/C=C(/C)CC[C@@H]2[C@@H]1CC2(C)C [isocaryophyllene] |  |  |  |  |  |  |  |  |  |  | 16 µg/mL | 30 µg/mL
7 | C/C1=C\CC/C(C)=C/CC(C)(C)/C=C/C1 [∝-humulene, α-humulene] |  |  |  |  |  |  |  |  |  |  | 15 µg/mL | 25 µg/mL
8 | vinblastine sulfate salt | (1) (Very High: CI equal or below 1 at IC20 and Cl below 0.6 to IC50) | (1) (Very High: CI equal or below 1 at IC20 and Cl below 0.6 to IC50) | (1) (Very High: CI equal or below 1 at IC20 and Cl below 0.6 to IC50) | (1) (Very High: CI equal or below 1 at IC20 and Cl below 0.6 to IC50) | (1) (Very High: potentiating or additive activity to IC20 and CI < 0.6 to IC50) | (3) (Moderate: 0.5 < CI < 0.8 to IC50) | (1) (Very High: potentiating or additive activity to IC20 and CI < 0.6 to IC50) | (1) (Very High: potentiating or additive activity to IC20 and CI < 0.6 to IC50) | (1) (Very High: potentiating or additive activity to IC20 and CI < 0.6 to IC50) | (1) (Very High: potentiating or additive activity to IC20 and CI < 0.6 to IC50) |  | 
9 | vincristine sulfate salt | (2) (High: CI below 0.5 at IC50) | (1) (Very High: CI equal or below 1 at IC20 and Cl below 0.6 to IC50) | (1) (Very High: CI equal or below 1 at IC20 and Cl below 0.6 to IC50) | (3) (Moderate: 0.5 < CI < 0.8 at IC50) | (1) (Very High: potentiating or additive activity to IC20 and CI < 0.6 to IC50) | (1) (Very High: potentiating or additive activity to IC20 and CI < 0.6 to IC50) | (1) (Very High: potentiating or additive activity to IC20 and CI < 0.6 to IC50) | (1) (Very High: potentiating or additive activity to IC20 and CI < 0.6 to IC50) | (1) (Very High: potentiating or additive activity to IC20 and CI < 0.6 to IC50) | (1) (Very High: potentiating or additive activity to IC20 and CI < 0.6 to IC50) |  | 
